# Results reported in ChEMBL document CHEMBL1201862, “PubChem BioAssay data set” (2004).
# Calls of active or inactive are those of the source.
# Columns and labels:
# [1] = C. albicans growth with fluconazole, confirmation, fluorescence, retest (AID 2467); type: functional, cell-based
# [2] = target: CAAX prenyl protease 2 (Saccharomyces cerevisiae S288c, UniProt Q03530); type: biochemical
# [3] = target: CAAX prenyl protease 1 (Saccharomyces cerevisiae S288c, UniProt P47154); experiment: Ste24 protease inhibitors, dose response, biochemical, S. cerevisiae, plate reader, cherry-pick (AID 488815)
# Sequence of CAAX prenyl protease 1 (P47154 whole entry): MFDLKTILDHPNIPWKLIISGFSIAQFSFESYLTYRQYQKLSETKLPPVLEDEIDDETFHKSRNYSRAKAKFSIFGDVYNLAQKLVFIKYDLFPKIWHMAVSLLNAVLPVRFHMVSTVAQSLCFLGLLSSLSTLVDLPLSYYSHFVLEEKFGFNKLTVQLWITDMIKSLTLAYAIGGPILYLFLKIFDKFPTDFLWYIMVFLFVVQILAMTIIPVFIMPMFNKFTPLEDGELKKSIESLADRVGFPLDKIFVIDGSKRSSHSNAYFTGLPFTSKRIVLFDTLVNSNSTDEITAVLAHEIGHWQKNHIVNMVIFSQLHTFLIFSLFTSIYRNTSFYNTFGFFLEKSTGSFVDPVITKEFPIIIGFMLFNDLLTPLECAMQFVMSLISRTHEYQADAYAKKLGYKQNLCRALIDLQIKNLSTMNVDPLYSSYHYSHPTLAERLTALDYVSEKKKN
# [4] = target: T1, Streptokinase A (Streptococcus pyogenes serotype M1, UniProt P10520); experiment: S. pyogenes streptokinase expression inhibitors, potency, dose response, plasminogen activation absorbance, OD405 (AID 1914); type: functional, Streptococcus pyogenes M1 GAS;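 also: secreted streptokinase activity via plasminogen activation per viability signal from cell pellet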
# T1 sequence (P10520 whole entry): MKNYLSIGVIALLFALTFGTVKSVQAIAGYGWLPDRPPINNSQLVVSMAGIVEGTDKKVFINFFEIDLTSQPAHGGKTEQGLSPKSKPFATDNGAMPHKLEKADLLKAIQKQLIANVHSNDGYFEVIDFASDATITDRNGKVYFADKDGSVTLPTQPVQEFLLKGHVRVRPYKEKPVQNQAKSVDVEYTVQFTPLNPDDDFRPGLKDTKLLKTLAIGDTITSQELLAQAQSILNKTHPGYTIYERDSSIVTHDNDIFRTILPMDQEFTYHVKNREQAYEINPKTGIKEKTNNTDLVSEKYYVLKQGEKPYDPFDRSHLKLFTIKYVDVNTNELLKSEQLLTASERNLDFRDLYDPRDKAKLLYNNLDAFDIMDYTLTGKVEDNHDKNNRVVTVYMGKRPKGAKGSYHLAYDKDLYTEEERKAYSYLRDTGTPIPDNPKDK
# [5] = target: CAAX prenyl protease 2 (Homo sapiens, UniProt Q9Y256); experiment: human Rce1 protease inhibitors, dose response, biochemical, yeast membranes, quenched-peptide fluorescence, cherry-pick (AID 588849)
# Sequence of CAAX prenyl protease 2 (Homo sapiens, UniProt Q9Y256) (Q9Y256 whole entry): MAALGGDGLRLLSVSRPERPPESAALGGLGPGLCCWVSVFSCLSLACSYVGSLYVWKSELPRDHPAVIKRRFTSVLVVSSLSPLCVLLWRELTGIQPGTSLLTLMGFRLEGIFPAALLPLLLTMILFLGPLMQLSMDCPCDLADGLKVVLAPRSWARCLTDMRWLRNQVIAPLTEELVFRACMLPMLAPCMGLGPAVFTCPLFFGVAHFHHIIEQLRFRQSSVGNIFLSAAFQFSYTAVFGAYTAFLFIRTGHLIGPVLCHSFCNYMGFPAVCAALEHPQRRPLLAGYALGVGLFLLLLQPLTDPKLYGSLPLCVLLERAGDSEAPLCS
# [6] = NIH-3T3 fibroblast cytotoxicity, dose response, cytotoxicity control, cell-based, fluorescence, Alamar Blue, secondary assay (AID 2327); type: functional;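 also: NIH-3T3 mouse fibroblasts cultured with fluconazole at 8 µg/mL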
# [7] = tested on: Streptococcus sp. 'group A'; experiment: growth inhibition of control SK(-) GAS strain, dose response, counter-screen for streptokinase expression inhibitor project, luminescence, kanamycin, BacTiterGlo, confirmation (AID 1900); type: functional, organism-based
# [8] = tested on: Streptococcus; experiment: Group A Streptococcus viability loss, dose response, counter-screen for streptokinase expression inhibitor project, luminescence, BacTiterGlo (AID 1915); type: functional, organism-based;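 also: potency for reduction of bacterial viability or growth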
# [9] = target: Short transient receptor potential channel 6 (Mus musculus, UniProt Q61143); experiment: TRPC6 inhibition potency of TRPC4 inhibitor analogs, dose response, selectivity assay for selective TRPC4 inhibitor project, HEK293 cells, membrane potential dye, IC50 (AID 492987); type: functional, cell-based
# Sequence of Short transient receptor potential channel 6 (Q61143 whole entry): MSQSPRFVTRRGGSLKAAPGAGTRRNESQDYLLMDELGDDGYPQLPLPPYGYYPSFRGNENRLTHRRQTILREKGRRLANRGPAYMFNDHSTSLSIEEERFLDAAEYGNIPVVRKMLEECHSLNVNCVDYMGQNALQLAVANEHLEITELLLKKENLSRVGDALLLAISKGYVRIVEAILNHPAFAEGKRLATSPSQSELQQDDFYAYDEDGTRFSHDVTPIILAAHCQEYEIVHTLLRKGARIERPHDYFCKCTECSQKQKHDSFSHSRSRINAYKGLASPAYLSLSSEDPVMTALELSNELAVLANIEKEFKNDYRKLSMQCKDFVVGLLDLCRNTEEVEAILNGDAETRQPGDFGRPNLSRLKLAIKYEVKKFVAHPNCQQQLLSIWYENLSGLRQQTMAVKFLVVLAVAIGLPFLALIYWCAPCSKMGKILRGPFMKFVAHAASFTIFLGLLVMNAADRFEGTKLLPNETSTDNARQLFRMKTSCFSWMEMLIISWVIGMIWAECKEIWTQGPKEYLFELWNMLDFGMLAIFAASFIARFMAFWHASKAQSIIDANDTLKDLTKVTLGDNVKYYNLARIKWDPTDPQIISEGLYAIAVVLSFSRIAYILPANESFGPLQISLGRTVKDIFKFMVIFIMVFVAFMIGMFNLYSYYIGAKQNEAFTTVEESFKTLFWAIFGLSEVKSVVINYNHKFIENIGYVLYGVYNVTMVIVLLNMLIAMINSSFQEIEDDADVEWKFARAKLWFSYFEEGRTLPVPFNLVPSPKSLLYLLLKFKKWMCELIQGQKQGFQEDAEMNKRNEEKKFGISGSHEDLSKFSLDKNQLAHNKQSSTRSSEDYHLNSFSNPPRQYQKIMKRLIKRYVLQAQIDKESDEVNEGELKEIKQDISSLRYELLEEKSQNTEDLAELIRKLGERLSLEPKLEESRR
# [10] = target: T2, Short transient receptor potential channel 4 (Mus musculus, UniProt Q9QUQ5); experiment: SAR Analysis for the identification of selective inhibits of the transient receptor potential cation channel C4 (TRPC4): Automated Electrophysiology. [Related pubchem assays (depositor defined):AID2256]; type: functional
# T2 sequence (Q9QUQ5 whole entry): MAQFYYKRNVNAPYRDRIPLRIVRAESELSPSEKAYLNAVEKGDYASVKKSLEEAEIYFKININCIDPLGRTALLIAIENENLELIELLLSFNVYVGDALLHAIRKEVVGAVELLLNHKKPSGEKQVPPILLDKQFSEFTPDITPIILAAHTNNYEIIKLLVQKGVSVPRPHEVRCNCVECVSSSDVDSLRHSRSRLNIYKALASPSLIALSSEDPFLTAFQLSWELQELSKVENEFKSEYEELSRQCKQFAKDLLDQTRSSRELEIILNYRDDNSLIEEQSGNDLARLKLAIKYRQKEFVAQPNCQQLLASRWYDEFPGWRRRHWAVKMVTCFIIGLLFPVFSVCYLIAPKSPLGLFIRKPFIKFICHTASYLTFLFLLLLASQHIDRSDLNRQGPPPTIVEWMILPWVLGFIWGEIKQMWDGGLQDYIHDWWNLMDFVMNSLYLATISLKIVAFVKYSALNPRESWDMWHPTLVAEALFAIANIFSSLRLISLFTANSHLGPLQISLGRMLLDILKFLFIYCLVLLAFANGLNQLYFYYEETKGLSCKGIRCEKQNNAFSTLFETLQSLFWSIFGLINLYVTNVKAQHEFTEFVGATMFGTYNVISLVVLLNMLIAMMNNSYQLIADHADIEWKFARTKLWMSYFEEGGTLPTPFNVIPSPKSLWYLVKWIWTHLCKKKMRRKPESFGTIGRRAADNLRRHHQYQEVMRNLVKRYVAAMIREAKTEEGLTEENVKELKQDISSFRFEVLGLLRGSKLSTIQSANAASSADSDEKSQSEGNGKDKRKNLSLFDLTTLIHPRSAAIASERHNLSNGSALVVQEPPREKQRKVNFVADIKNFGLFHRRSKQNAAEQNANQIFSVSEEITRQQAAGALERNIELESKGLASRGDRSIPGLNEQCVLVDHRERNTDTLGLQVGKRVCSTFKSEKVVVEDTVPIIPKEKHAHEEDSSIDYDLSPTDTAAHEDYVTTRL
# [11] = target: T2, Short transient receptor potential channel 4; experiment: TRPC4 inhibitor concentration-response, dose response, cell-based, HEK293 TRPC4/mu-opioid, DAMGO stimulus, Fluo-4 (AID 492994); type: functional
# [12] = target: T2, Short transient receptor potential channel 4; experiment: TRPC4 inhibition under acetylcholine activation, SAR follow-up, cell-based, acetylcholine stimulus, HEK293 TRPC4, Fluo-4 (AID 492996); type: functional
# [13] = tested on: HEK293; experiment: SAR Analysis of small molecule inhibitors of B-cell specific antigen receptor-induced NF-kB activation in a HEK-293T cell line using a luminescence assay - Set 2. [Related pubchem assays (depositor defined):AID435022, AID435025, AID489021]; type: functional, cell-based; conditions: Homo sapiens
# [14] = tested on: HEK293; experiment: cytotoxicity in HEK293T NF-kB-Luc cells, SAR follow-up, cytotoxicity control for NF-kB activator project, cell-based, resazurin fluorescence (AID 493251); type: functional; conditions: Homo sapiens
# [15] = tested on: Jurkat; experiment: SAR Analysis of small molecule inhibitors of […] specific antigen receptor-induced NF-kB activation in a Jurkat cell line using a luminescence assay - Set 3. [Related pubchem assays (depositor defined):AID435022, AID435025, AID465]; type: functional, cell-based; conditions: Homo sapiens
# [16] = target: Luciferin 4-monooxygenase (Photuris pensylvanica, UniProt Q27757); experiment: firefly luciferase enzyme inhibitors, dose response, counter-screen for HSF-1 reporter inhibitor project, biochemical, Cell Titer Glo, luminescence, cherry-picks (AID 588847)
# Sequence of Luciferin 4-monooxygenase (Q27757 whole entry): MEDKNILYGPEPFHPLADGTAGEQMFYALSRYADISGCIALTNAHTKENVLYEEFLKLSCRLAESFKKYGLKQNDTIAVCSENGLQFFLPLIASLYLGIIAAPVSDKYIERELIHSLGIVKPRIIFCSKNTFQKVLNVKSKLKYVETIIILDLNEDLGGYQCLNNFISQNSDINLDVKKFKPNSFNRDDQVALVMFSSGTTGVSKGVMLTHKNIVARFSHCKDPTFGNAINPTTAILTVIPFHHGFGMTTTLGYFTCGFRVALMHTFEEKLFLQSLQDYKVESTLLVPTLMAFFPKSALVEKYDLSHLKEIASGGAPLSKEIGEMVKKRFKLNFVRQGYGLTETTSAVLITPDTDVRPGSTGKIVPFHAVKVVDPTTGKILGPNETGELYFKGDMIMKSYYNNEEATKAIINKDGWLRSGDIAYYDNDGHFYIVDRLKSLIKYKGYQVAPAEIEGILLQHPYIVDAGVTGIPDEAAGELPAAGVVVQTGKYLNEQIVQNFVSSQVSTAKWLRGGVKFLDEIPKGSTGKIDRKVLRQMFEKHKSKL
# Sequence of CAAX prenyl protease 2 (Saccharomyces cerevisiae S288c, UniProt Q03530) (Q03530 whole entry): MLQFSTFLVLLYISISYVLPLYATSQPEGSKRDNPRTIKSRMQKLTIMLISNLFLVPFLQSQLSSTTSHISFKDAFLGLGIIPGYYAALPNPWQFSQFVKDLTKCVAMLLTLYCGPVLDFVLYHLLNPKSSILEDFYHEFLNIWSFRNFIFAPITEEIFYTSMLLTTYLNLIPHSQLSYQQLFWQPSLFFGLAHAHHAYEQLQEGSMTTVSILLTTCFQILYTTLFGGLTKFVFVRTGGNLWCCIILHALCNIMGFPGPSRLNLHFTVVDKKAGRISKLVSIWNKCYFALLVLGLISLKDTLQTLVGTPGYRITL
smiles,measurement,setting,value
CCCCCc1ccc(OCCOCC[n+]2cn(C)c3ccccc32)c(CCCCC)c1,EC50,[1],1.31 µM (active)
same,AC50,[2],9.1 µM (active)
same,AC50,[3],13.1 µM (active)
same,EC50,[4],13.5 µM (active)
same,AC50,[5],17.9 µM (active)
same,EC50,[6],> 150 µM (inactive)
same,EC50,[7],6.43 µM (active)
same,EC50,[8],16.1 µM (inconclusive)
Cc1cc(N2CCN(c3ccncc3)CC2)nc2ccccc12,IC50,[9],11.4 µM (active)
same,IC50,[10],8.18 µM (active)
same,IC50,[11],19.9 µM (active)
same,IC50,[12],15.2 µM (active)
CCOc1ccc(-c2nc(CSCC(=O)NCCN3CCCC3)c(C)o2)cc1,IC50,[13],28.4 µM (inactive)
same,IC50,[14],> 80 µM (inactive)
same,IC50,[15],10.4 µM (active)
C[C@]12C=CC(=O)C=C1CC[C@@H]1[C@@H]2[C@@H](O)C[C@@]2(C)[C@H]1CC[C@]2(O)C(=O)CO [PREDNISOLONE],AC50,[16],> 52 µM (inactive)
